Reference: patent US20130034613A1, “FORMULATIONS OF PHOSPHITES” (Ceradis B.V., priority 2009, published 2013)

Tests used:
Type in all cases: in vivo
[1] = tested on: rose; experiment: Phytotoxicity towards rose after spraying (Example 2); conditions: summary of Table 3
Excerpt: The experimental design is a randomized block design with a plot size of 3 plants per plot. The experiment has 4 replications. Plants are sprayed with solution until run-off occurs. The composition and the dose rate of the different treatments are the same as in example 1, except that calcium lignosulfonate was replaced by sodium lignosulfonate (Borresperse NA®, Borregaard LignoTech Ltd, Germany).
Phytotoxicity is observed one week after spraying. Per plant, the percentage leaf area dead or showing phytotoxicity symptoms is estimated.

[2] = tested on: garden cress (Lepidium sativum) seedlings; experiment: Phytotoxicity towards garden cress seedlings after spraying; conditions: summary of Table 2
Protocol: Two compositions of potassium phosphite are prepared, one with and one without calcium lignosulfonate (Borresperse CA®, Borregaard LignoTech Ltd, Germany). The formulation and the concentration in the spray solution are calculated in such a way that the dosage of phosphite is the same for both compositions (120 mM=14.4 g potassium phosphite/1 spray solution). A control is added in which the adjuvants alone (without lignosulfonate or phosphite) are tested.
Various adjuvants are added to the two compositions: alcohol ethoxylate (commercial product: Genapol EP 2584, Clariant, Germany), di-octyl sulfosuccinate (commercial product Emulsogen SF8, Clariant, Germany), quaternary ammonium surfactant (commercial product Geronol CF/PN-20N, Rhodia, France) and ethoxylated tallow amine (commercial product Ethomeen S25, Akzo Nobel, The Netherlands). All adjuvant products arc added at a concentration of 5 g/l spray solution. For both compositions, a control is added without adjuvant.
Garden cress seedlings are grown in plastic boxes (100 seeds/box) on mineral sand. Boxes were kept at 22° C. One week old seedlings are sprayed with the various spray solutions until run-off of the solutions occurs. Phytotoxicity is observed three days after spraying. The percentage of seedlings dead or showing phytotoxicity symptoms is estimated. […]

[3] = tested on: grapevine cultivar Merlot; experiment: Phytotoxicity towards grapevine after spraying; conditions: summary of Table 4
Excerpt: The experimental design is a randomized block design with a plot size of 3 plants per plot. The experiment has 4 replications. Plants are sprayed with solution until run-off occurs. The composition and the dose rate of the different treatments are the same as in example 1.
Phytotoxicity is observed one week after spraying. Per plant, the percentage leaf area dead or showing phytotoxicity symptoms was estimated.

Measured: phytotoxicity (in words)

potassium phosphite
phytotoxic: all assays above
